Assay results published in US11879137B2, “Treatment of type 1 diabetes and autoimmune diseases or disorders” (THE CHILDREN'S MEDICAL CENTER CORPORATION, priority 2017, dated 2024).

Legend:
PD-L1 on CD34+ cells = assay: Prostaglandin library screening and FACS of PD-L1 on human CD34+ cells; type: cell-based; details: for capacity to upregulate PD-L1 (MFI) in library screening: 10 μM, CD34+ cells from T1D patients; for PD-L1 expression by FACS analysis: CD34+ cells, 10 μM pulsed at 24 and 48 hours
From the text: FIGS. 17A-17J show prostaglandins enhance PD-L1 expression on human CD34^+ cells. (FIG. 17A-17B) Results of screening of a prostaglandin small molecule library tested for the ability to upregulate PD-L1 (MFI) on CD34^+ cells obtained from T1D patients. The schematic of the experimental design is shown in (A). The 3-color coding shown in (FIG. 17B) represents lowest PD-L1 MFI values (blue), median PD-L1 MFI values (pink) and highest PD-L1 MFI values (red). (FIG. 17C-17D) Representative flow cytometric analysis and quantitative bar graph of PD-L1 expression on CD34^+ cells from T1D patients pre- and post-pharmacologic modulation with PGE2 as compared to CD34^+ cells obtained from healthy controls. (FIG. 17E) PD-L1 and CXCR4 expression (mRNA) fold change was quantified for CD34^+ cells pre- and post-modulation with PGE2. (FIG. 17F) Migration assay using CD34^+ cells pre- and post-modulation with PGE2. (FIG. 17G) Confocal imaging of CD34^+ cells pre- and post-modulation with PGE2, showing DAPI (in blue) and PD-L1 (in green) staining. 63× magnification. Scale bar, 50 (FIG. 17H) IDO-1 expression (mRNA) fold change was quantified for CD34^+ cells pre- and post-modulation with PGE2. (FIG. 17I-17J) Representative flow cytometric analysis (FIG. 17I) and quantitative bar graph (FIG. 17J) of PD-L1 expression on CD34^+ cells from T1D patients pre- and post-pharmacologic modulation with 4 small molecule PGE2 agonists. All data are expressed as mean±SEM. *P<0.05, **P<0.001. Abbreviations: MFI, mean fluorescence intensity.
Pharmacological modulation of human CD34+ cells. 1×105 of isolated human CD34+ HSPCs (purity 99%) were cultured in 200 μl of StemSpan SFEM II media (SEMCELL Technologies Inc., Cambridge, MA, USA), and each compound in the Prostaglandin Screening Library II (Cayman Chemicals, Ann Arbor, MI), was added individually at day 0 and at day 1 at a concentration of 10 μM as previously reported by the inventors and others (9, 21). In another assay, isolated CD34+ cells from freshly isolated human PBMCs or from cryopreserved PBMCs, and processed as described earlier, were cultured in the presence of a cocktail of cytokines containing: 10 μg/ml heparin (SEMCELL Technologies Inc., Cambridge, MA, USA), 10 ng/ml human SCF (Miltenyi Biotec, San Diego, CA), 20 ng/ml human TPO (Miltenyi Biotec, San Diego, CA), 10 ng/ml human FGF-1 (Miltenyi Biotec, San Diego, CA), 100 ng/ml IGFBP2 (R&D Systems, Inc., Minneapolis, MN), and 500 ng/ml Angptl3 (R&D Systems, Inc., Minneapolis, MN). PGE2 (PromoKine, PromoCell Gmbh, Germany) was added by pulsing the culture at 0, 24h, 72h and 6 days with 2 μl of diluted PGE2 (10 μM). Cells were cultured for 7 days at 37° C. in 5% CO2, and CD34+ cells were then subjected to FACS analysis and were run on a FACSCelesta™ (Becton Dickinson, Franklin Lakes, NJ). Data were analyzed using FlowJo software version 8.7.3 (Treestar, Ashland, OR). The different cytokines used here and their related concentration as well as the choice of the incubation timing was used as previously reported in the literature (22).
Prostaglandin library screening. PGE2 has been described as a small molecule known to enhance the homing and engraftment of HSPCs. It was therefore sought to screen all known types of prostaglandins using the Prostaglandin Screening Library II, which contains 64 small molecules. Each small molecule contained in the library was first screened for its capacity to upregulate PD-L1 in human CD34+ cells isolated from T1D patients (FIG. 17A-17B). CD34+ cells isolated from T1D patients were cultured in StemSpan SFEMII and pulsed with each PG (prostaglandin) small molecule contained in the aforementioned library at a concentration of 10 μM at 24 and 48h. Using FACS analysis, the MFI (mean fluorescence intensity) of PD-L1 expression was calculated following treatment with each small molecule used to modulate CD34+ cells as compared to untreated/unmodulated CD34+ cells (FIG. 17B). […]

CD34+ cells = assay: qRT-PCR of PD-L1, CXCR4 and IDO-1 in prostaglandin-modulated CD34+ cells; type: cell-based, human; details: CD34+ cells upon modulation
Experimental: qRT-PCR. RNA was extracted from CD34+ cells using Direct-Zol™ RNA Kits (Zymo, Irvine, CA, USA) and Trizol Reagent (Invitrogen Carlsbad, CA), RNA quality was assessed by Multiskan™ GO Microplate spectrophotometer and the ratios of absorbance at 260 nm and 280 nm were assessed for all the samples. Only samples with RNA ratios within 1.9 were included in the present study. cDNA synthesis was made from purified total RNA by reverse transcription using High capacity cDNA Reverse Transcription RETROscript® Kit (Thermo Fisher Scientific, Waltham, MA, USA) followed by a pre-amplification using Taqman PreAmp Kit (Applied Biosystems) according to the manufacturer's instructions. qRT-PCR analysis was performed using TaqMan assays (Life Technologies, Grand Island, NY) containing PCR primers and TaqMan probes according to the manufacturer's instructions. Normalized expression values were determined using the ΔCt method. Quantitative reverse transcriptase polymerase chain reaction (qRT-PCR) data were normalized for the expression of GAPDH. qRT-PCR reactions were performed in triplicate in a 96-well format using an Applied Biosystems 7900HT fast real-time PCR instrument. Relative expression was calculated using the comparative threshold cycle method as previously described (23, 24). For two-group comparisons, a Student's t test was employed. Reported below are the main characteristics of the primers used: […]
Prostaglandin library screening. PGE2 has been described as a small molecule known to enhance the homing and engraftment of HSPCs. It was therefore sought to screen all known types of prostaglandins using the Prostaglandin Screening Library II, which contains 64 small molecules. Each small molecule contained in the library was first screened for its capacity to upregulate PD-L1 in human CD34+ cells isolated from T1D patients (FIG. 17A-17B). CD34+ cells isolated from T1D patients were cultured in StemSpan SFEMII and pulsed with each PG (prostaglandin) small molecule contained in the aforementioned library at a concentration of 10 μM at 24 and 48h. Using FACS analysis, the MFI (mean fluorescence intensity) of PD-L1 expression was calculated following treatment with each small molecule used to modulate CD34+ cells as compared to untreated/unmodulated CD34+ cells (FIG. 17B). A heat map was generated depicting the degree to which each PG small molecule affected PD-L1 expression on CD34+ cells (FIG. 17B), thus allowing for the evaluation of PG candidates. Based on its ability to modulate PD-L1 expression, PGE2 was selected as a candidate for further study; in addition, PGE2 has been described in the literature and has been tested in clinical trials as a potential therapy for enhancing HSPC engraftment following cord blood transplantation (21). Isolated CD34+ cells from healthy control patients (CTRL) and from T1D patients were cultured in StemSpan SFEMII and pulsed with 10 μM of PGE2 at 24 hours and 48 hours. […] It was therefore sought to perform a migration assay in order to assess the homing properties of PGE2-treated CD34+ cells (FIG. 17F).

[1] = system: NEU1, MTOR, MYC, IGF1R, VEGFA, RB1 in MDA-MB-231 cells; assay: mRNA of validated miRNA target genes (transfection control) in MDA-MB-231 cells; type: cell-based, human; details: VEGFA or RB1 as named for each agent, 48 h after transfection
Experimental: MDA-MB-231 breast cancer cells were cultured in DMEM high glucose medium (Gibco, Thermo Fisher Scientific; Waltham, MA USA) supplemented with 10% heat-inactivated fetal calf serum (Gibco, Thermo Fisher Scientific), 100 units/ml penicillin, 100 μg/ml streptomycin, and 2 mM L-glutamine. 2×10^5 cells were seeded in each well of a 6-well plate and transfected with 10 pmol of the miRNA mimic or miRNA mimic negative control, or 100 pmol of the anti-miR or anti-miR negative control (all from Exiqon, Qiagen) using the Lipofectamine RNAiMAX transfection reagent (Invitrogen, Thermo Fisher Scientific) in a final culture medium volume of 2 ml, following manufacturer's instructions. […] Forty-eight hours after transfection, cells were collected from each well for RNA extraction, cell lysate preparation and FACS analysis. RNA was extracted using Direct-zol RNA miniprep plus (Zymo research, Irvine, CA, USA) and RNA quality was checked and then retro-transcribed using RETROscript® Kit (Fisher Scientific) following manufacturer's instructions. Cell lysates were obtained in RIPA buffer (50 mmol/1 Tris-HCl, pH 8.0, 1% Triton-x, 0.5% sodium deoxycholate, 0.1% SDS, 150 mmol/1 sodium chloride) with protease inhibitor cocktail (Roche).
qRT-PCR for PD-L1 analysis was performed on retro-transcribed cDNA using SYBR® Green dye (Life Technologies, Thermo Fisher Scientific). Amplification was performed on a QuantStudio S6 Real Time PCR system (Thermo Fisher Scientific). To confirm a successful transfection, the mRNA level of genes known to be controlled by the targeted miRNAs were evaluated by SYBR® Green dye (Life Technologies, Thermo Fisher Scientific) according to the manufacturer's instructions. Normalized expression values were determined using the ΔΔCt method in treated as compared to negative treated samples, using GAPDH mRNA as endogenous reference. The miRNA-targeted genes tested, along with forward and reverse primer sequences used for their amplification, are listed in Table 13.
To determine if targeting the miRNA network decreases PD-L1 expression in human cancer setting, PD-L1-expressing MDA-MB-231 human breast cancer cells were transfected with a set of miRNA mimics or anti-miRs to either increase or decrease the function of a set of miRNAs not previously known to affect PD-L1 (miR-125b, miR-99a, miR-744, mir-599, miR-511, miR-206, miR-26b). The effect of treatment with miRNA mimics and anti-miRs on the percentage of PD-L1-expressing cells, as well as on PD-L1 mRNA and protein levels, was investigated. miRNA mimic/anti-miR treated-cells were compared to corresponding mimic/anti-miR negative control-treated cells by flow cytometric analysis, Real Time PCR and western blot to assess percentage of PD-L1-expressing cells, PD-L1 mRNA, and PD-L1 protein levels, respectively. A successful miRNA mimic/anti-miR transfection was confirmed by the detection of changed mRNA levels of the validated miRNA targets NEU1 (for miR-125b mimic), MTOR (for miR-99a mimic), MYC (for miR-744 mimic and miR-599 anti-miR), IGF1R (for miR-511 mimic), VEGFA (for miR-206 anti-miR) and RB1 (for miR-26b anti-miR) in treated cells (FIG. 22A). […] Lysates of miR-511 mimic and miR-206 anti-miR treated cells were not available for western blot analysis.

Row | Molecule | capacity to upregulate PD-L1 (MFI) in library screening (PD-L1 on CD34+ cells) | PD-L1 expression by FACS analysis (PD-L1 on CD34+ cells) | PD-L1 mRNA expression by RT-PCR (CD34+ cells) | mRNA levels of the validated miRNA target [1]
1 | CCCCC[C@H](O)/C=C/[C@H]1[C@H](O)CC(=O)[C@@H]1CC(=O)CCCCC(=O)O [6-keto PGE1] | strongest capacity | robust upregulation |  | 
2 | CCCCC(C)(C)[C@H](O)/C=C/[C@H]1[C@H](O)CC(=O)[C@@H]1C/C=C\CCCC(=O)Oc1ccc(NC(=O)c2ccc(NC(C)=O)cc2)cc1 [16,16-dimethyl PGE2 4-(4-acetamidobenzamido) phenyl ester] | strongest capacity | robust upregulation | marked upregulation | 
3 | CCCCCCC[C@H](O)/C=C/[C@H]1[C@H](O)CC(=O)[C@@H]1C/C=C\CCCC(=O)O [20-ethyl PGE2] | strongest capacity | robust upregulation | marked upregulation | 
4 | miR-26b anti-miR: Anti-miR, CUAUCCUGAAUUACUUGA, SEQ ID NO: 8 (listed as RNA, chemistry not given here) |  |  |  | changed
5 | miR-99a mimic: miRNA mimic, AACCCGUAGAUCCGAUCUUGUG, SEQ ID NO: 3 (listed as RNA, chemistry not given here) |  |  |  | changed
6 | miR-206 anti-miR: Anti-miR, CACACACUUCCUUACAUUCC, SEQ ID NO: 7 (listed as RNA, chemistry not given here) |  |  |  | changed
7 | miR-511 mimic: miRNA mimic, AAUGUGUAGCAAAAGACAGA, SEQ ID NO: 2 (listed as RNA, chemistry not given here) |  |  |  | changed
8 | miR-744 mimic: miRNA mimic, CUGUUGCCACUAACCUCAACCU, SEQ ID NO: 4 (listed as RNA, chemistry not given here) |  |  |  | changed
